The assay deals with HeLa. In words: Cytotoxicity against human HeLa cells assessed as reduction in cell viability by MTT assay. The format is functional, cell-based.

For `C[C@@H]1CN2C[C@H]3CCC(=O)OCC[C@H]4CC5=C(C4=O)[C@@]3(C)[C@H]2C[C@H]1C5=O`, the IC50 stood at 3.89 µM.

These data come from ChEMBL document CHEMBL4411277, “Structural Revision of Macropodumine A and Structure of 2-Deoxymacropodumine A, Daphniphyllum Alkaloids with 11-Membered Macrolactone Rings” (J Nat Prod, 2019).
